± gives the uncertainty stated by the source.
How the values were obtained:
[1] = system: Klebsiella pneumoniae ATCC 13882; test: final OD630 (growth) after 24 h; higher = more bacterial growth; extreme values may be limits of the assay
Protocol: (§1)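 Klebsiella pneumoniae ATCC 13882 (start OD600 0.05) grown in M9U medium with 40 mM urea and phenol red plus inhibitor, in triplicate in 96-well plates. A557 and OD630 were read every 15 min for 24 h. Ureolysis was followed as the pH-related A557-A630: onset time, Gompertz-fit rate and final value. Growth was followed as OD630.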

[2] = system: Klebsiella pneumoniae ATCC 13882; test: onset of ureolytic pH increase; higher = more delayed ureolysis (inhibition)
Protocol: as §1

[3] = system: Klebsiella pneumoniae ATCC 13882; test: rate of pH (A557-A630) increase, Gompertz fit (10^-4 s-1); higher = faster ureolysis; extreme values may be limits of the assay
Protocol: as §1

[4] = system: Klebsiella pneumoniae ATCC 13882; test: final pH-related absorbance (A557-A630) after 24 h (absorbance units); higher = more ureolysis; extreme values may be limits of the assay
Protocol: as §1

SMILES | final OD630 ([1]; 0.1 mM) | final OD630 ([1]; 1 mM) | final OD630 ([1]; 10 mM) | onset of ureolytic pH increase ([2]; 0.1 mM) | onset of ureolytic pH increase ([2]; 1 mM) | onset of ureolytic pH increase ([2]; 10 mM) | rate of pH ([3]; 0.1 mM) | rate of pH ([3]; 1 mM) | rate of pH ([3]; 10 mM) | final pH-related absorbance ([4]; 0.1 mM) | final pH-related absorbance ([4]; 1 mM) | final pH-related absorbance ([4]; 10 mM) | final OD630 ([1]; 0.007 mM) | final OD630 ([1]; 0.07 mM) | final OD630 ([1]; 0.7 mM) | onset of ureolytic pH increase ([2]; 0.007 mM) | onset of ureolytic pH increase ([2]; 0.07 mM) | onset of ureolytic pH increase ([2]; 0.7 mM) | rate of pH ([3]; 0.007 mM) | rate of pH ([3]; 0.07 mM) | rate of pH ([3]; 0.7 mM) | final pH-related absorbance ([4]; 0.007 mM) | final pH-related absorbance ([4]; 0.07 mM) | final pH-related absorbance ([4]; 0.7 mM) | final OD630 ([1]; 0.017 mM) | final OD630 ([1]; 0.167 mM) | onset of ureolytic pH increase ([2]; 0.017 mM) | onset of ureolytic pH increase ([2]; 0.167 mM) | rate of pH ([3]; 0.017 mM) | rate of pH ([3]; 0.167 mM) | final pH-related absorbance ([4]; 0.017 mM) | final pH-related absorbance ([4]; 0.167 mM)
CNC(=O)NC [N.N'-Dimethylurea] | 0.502 ± 0.0051 | 0.411 ± 0.018 | 0 | 9.871 ± 0.0467 h | 13.1 ± 0.483 h | 0 min | 1.69 ± 0.054 | 1.77 ± 0.022 | 0.0814 ± 0.0017 | 0.213 ± 0.004 | 0.197 ± 0.095 | 0.456 ± 0.0086 |  |  |  |  |  |  |  |  |  |  |  |  |  |  |  |  |  |  |  | 
O=C(O)C(=O)O [Oxalic acid] | 0.435 ± 0.0093 | 0.441 ± 0.0005 | 0.089 ± 0.0056 | 11.3 ± 0.015 h | 11.29 ± 0.0183 h | > 15 h | 1.52 ± 0.024 | 1.62 ± 0.013 | 0 | 0.334 ± 0.008 | 0.291 ± 0.0011 | 0 |  |  |  |  |  |  |  |  |  |  |  |  |  |  |  |  |  |  |  | 
NP(N)(=O)Oc1ccccc1 [Phenyl phosphorodiamidate] |  |  |  |  |  |  |  |  |  |  |  |  | 0.421 ± 0.0059 | 0.4185 ± 0.004 | 0.384 ± 0.01 | > 15 h | > 15 h | > 15 h | 0 | 0 | 0 | 0 | 0 | 0 |  |  |  |  |  |  |  | 
O=S(O)S(=O)(=O)O [Potassium disulfite] | 0.462 ± 0.012 | 0.531 ± 0.001 | 0.024 ± 0.002 | 7.117 ± 0.025 h | 8.65 ± 0.2 h | > 15 h | 1.766 ± 0.005 | 0.8111 ± 0.002 | 0 | 0.358 ± 0.002 | 0.356 ± 0.014 | 0 |  |  |  |  |  |  |  |  |  |  |  |  |  |  |  |  |  |  |  | 
[K+].[O]=[Mn](=[O])(=[O])[O-] [Potassium permanganate] | 0.444 ± 0.0025 | 0 |  | 11.35 ± 0.107 h | > 25 h |  | 1.65 ± 0.032 | 0 |  | 0.062 ± 0.0044 | 0 |  |  |  |  |  |  |  |  |  |  |  |  |  |  |  |  |  |  |  |  | 
Oc1ccccc1O [Pyrocatechol] | 0.425 ± 0.0055 | 0.462 ± 0.0061 | 0 | 11.07 ± 0.07 h | 14.6 ± 0.35 h |  | 1.789 ± 0.015 | 1.74 ± 0.016 |  | 0.397 ± 0.0008 | 0.369 ± 0.011 |  |  |  |  |  |  |  |  |  |  |  |  |  |  |  |  |  |  |  |  | 
[F-].[Na+] [Sodium flouride] | 0.408 ± 0.0001 | 0.368 ± 0.0081 | 0.335 ± 0.0025 | 12.22 ± 0.0567 h | > 25 h | > 25 h | 1.35 ± 0.025 | 0 | 0 | 0.178 ± 0.0021 | 0 | 0 |  |  |  |  |  |  |  |  |  |  |  |  |  |  |  |  |  |  |  | 
O=S([O-])[O-].[Na+].[Na+] [Sodium sulfite] | 0.477 ± 0.013 | 0.504 ± 0.027 | 0.416 ± 0.004 | 7 ± 0.217 h | 7.4 ± 0.4 h | 9.88 ± 0.125 h | 2.1 ± 0.24 | 1.883 ± 0.013 | 0.984 ± 0.011 | 0.461 ± 0.054 | 0.373 ± 0.006 | 0.273 ± 0.011 |  |  |  |  |  |  |  |  |  |  |  |  |  |  |  |  |  |  |  | 
O=S(=O)(O)SSS(=O)(=O)O [Sodium tetrathionate dihydrate] | 0.532 ± 0.027 | 0.541 ± 0.021 | 0.554 ± 0.021 | 7.21 ± 0.35 h | 7.23 ± 0.367 h | 7.17 ± 0.383 h | 3.64 ± 1.1 | 3.32 ± 1.5 | 3.97 ± 1.7 | 0.569 ± 0.076 | 0.492 ± 0.1 | 0.5 ± 0.12 |  |  |  |  |  |  |  |  |  |  |  |  |  |  |  |  |  |  |  | 
N#C[S-].[Na+] [Sodium thiocyanate] | 0.431 ± 0.003 | 0.445 ± 0.0004 | 0.403 ± 0.003 | 11.25 ± 0.065 h | 11.7 ± 0.167 h | 12.8 ± 0.317 h | 1.61 ± 0.036 | 1.6 ± 0.048 | 0.0522 ± 0.0032 | 0.152 ± 0.002 | 0.144 ± 0.0019 | 0.123 ± 0.0011 |  |  |  |  |  |  |  |  |  |  |  |  |  |  |  |  |  |  |  | 
O=S(O)(O)=S [Sodium thiosulfate] | 0.476 ± 0.0014 | 0.457 ± 0.0043 | 0.454 ± 0.011 | 9.5 ± 0.112 h | 9.93 ± 0.0833 h | 10.2 ± 0.13 h | 2.09 ± 0.021 | 2.11 ± 0.025 | 2.2095 ± 0.0016 | 0.154 ± 0.0011 | 0.14 ± 0.0017 | 0.142 ± 0.011 |  |  |  |  |  |  |  |  |  |  |  |  |  |  |  |  |  |  |  | 
NS(=O)(=O)O [Sulfamic acid] | 0.506 ± 0.0081 | 0.515 ± 0.014 | 0 | 9.36 ± 0.2 h | 8.91 ± 0.118 h | > 15 h | 2.17 ± 0.036 | 1.96 ± 0.055 | 0 | 0.166 ± 0.019 | 0.182 ± 0.011 | 0 |  |  |  |  |  |  |  |  |  |  |  |  |  |  |  |  |  |  |  | 
O=C(OC[C@H]1O[C@@H](OC(=O)c2cc(O)c(O)c(OC(=O)c3cc(O)c(O)c(O)c3)c2)[C@H](OC(=O)c2cc(O)c(O)c(OC(=O)c3cc(O)c(O)c(O)c3)c2)[C@@H](OC(=O)c2cc(O)c(O)c(OC(=O)c3cc(O)c(O)c(O)c3)c2)[C@@H]1OC(=O)c1cc(O)c(O)c(OC(=O)c2cc(O)c(O)c(O)c2)c1)c1cc(O)c(O)c(OC(=O)c2cc(O)c(O)c(O)c2)c1 [Tannic acid] | 0.452 ± 0.0032 | 0.433 ± 0.0003 | 0 | 10.1 ± 0.517 h | 10.69 ± 0.085 h | > 25 h | 1.47 ± 0.091 | 1.282 ± 0.0068 | 0 | 0.129 ± 0.0091 | 0.125 ± 0.0013 | 0 |  |  |  |  |  |  |  |  |  |  |  |  |  |  |  |  |  |  |  | 
NC(N)=S [Thiourea] | 0.48 ± 0.0071 | 0.492 ± 0.012 | 0.483 ± 0.008 | 6.84 ± 0.3 h | 7.06 ± 0.2 h | 7.59 ± 0.217 h | 2.27 ± 0.21 | 2.13 ± 0.083 | 1.94 ± 0.099 | 0.271 ± 0.024 | 0.25 ± 0.0002 | 0.236 ± 0.014 |  |  |  |  |  |  |  |  |  |  |  |  |  |  |  |  |  |  |  | 
O=C1C=CC(=O)C=C1 [p-benzoquinone] |  |  |  |  |  |  |  |  |  |  |  |  |  |  |  |  |  |  |  |  |  |  |  |  | 0.421 ± 0.011 | 0 | 11.35 ± 0.0333 h | > 25 h | 1.59 ± 0.027 | 0 | 0.171 ± 0.0039 | 0
Oc1ccc(Cl)cc1 [p-chlorophenol] | 0.42 ± 0.0062 | 0.401 ± 0.0036 | 0 | 12.21 ± 0.0417 h | 15.6 ± 0.233 h | > 15 h | 1.5 ± 0.019 | 0.0559 ± 0.0036 | 0 | 0.162 ± 0.0043 | 0.09 ± 0.0059 | 0 |  |  |  |  |  |  |  |  |  |  |  |  |  |  |  |  |  |  |  | 

Reference: the supplement of paper PMC7244745
